The values that follow come from patent US20260001871A1, “TRIAZOLE DERIVATIVES AS MODULATORS OF MAS-RELATED G-PROTEIN RECEPTOR D” (ESCIENT PHARMACEUTICALS, INC., priority 2022, published 2026).

What is called IC50 is the concentration needed to halve the response being measured.

human MRGPRD, sequence (Q8TDS7 whole entry): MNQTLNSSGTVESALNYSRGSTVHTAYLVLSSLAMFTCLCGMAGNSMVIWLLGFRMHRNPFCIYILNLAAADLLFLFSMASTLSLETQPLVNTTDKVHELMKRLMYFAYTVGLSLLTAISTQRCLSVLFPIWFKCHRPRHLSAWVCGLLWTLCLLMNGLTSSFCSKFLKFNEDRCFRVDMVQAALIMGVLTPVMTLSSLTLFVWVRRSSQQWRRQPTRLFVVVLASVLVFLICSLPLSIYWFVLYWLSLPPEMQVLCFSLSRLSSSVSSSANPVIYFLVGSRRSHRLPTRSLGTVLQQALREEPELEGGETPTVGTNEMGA

The target of this test is human MRGPRD (Homo sapiens, UniProt Q8TDS7). In words: MRGPRD antagonist activity, IP-One HTRF assay in CHO cells stably expressing human MRGPRD (versus 100 μM β-Alanine agonist). In kind it is cell-based. The gist of the method:
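IP-1 HTRF read-out, with IC50 from HTRF ratio curves and percent antagonism relative to maximal efficacy (mean, SEM). Antagonists and agonist were co-incubated 1 h at 37 °C plus 1 h at room temperature on overnight-plated MRGPRD-CHO cells in LiCl-containing Tris buffer, pH 8.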
(TR-FRET usually uses a lanthanide donor and a delayed reading to cut background.)
`NC(=O)c1ccc(-c2ccc(-n3nnc(C(=O)NC4(c5cccnc5)CC4)c3C3CC3)cc2)cc1` [Compound 18-4] returned an IC50 of 1 to 3 µM.
Turning to `Cc1cncc(C2(NC(=O)c3nnn(-c4ccc(-c5ccc(C#N)cc5)cc4)c3C3CC3)CC2)c1` [Compound 18-5], the IC50 fell in the range of 1 to 3 µM.
Take `COc1cncc(C2(NC(=O)c3nnn(-c4ccc(-c5ccc(C#N)cc5)cc4)c3C3CC3)CC2)c1` [Compound 18-6]: the IC50 was 1 to 3 µM.
With `COc1ccc(C2(NC(=O)c3nnn(-c4ccc(-c5ccc(C(N)=O)cc5)cc4)c3C3CC3)CC2)cn1` [Compound 18-7], the IC50 fell in the range of 1 to 3 µM.
In the case of `N#Cc1ccc(-c2ccc(-n3nnc(C(=O)NC4(c5cccnc5)CC4)c3C3CC3)cc2)cn1` [Compound 18-8] it was 1 to 3 µM; in that of `N#CCc1ccc(-c2ccc(-n3nnc(C(=O)NC4(c5cccnc5)CC4)c3C3CC3)cc2)cc1` [Compound 18-9], 1 to 3 µM.
`NC(=O)c1ccc(-c2ccc(-n3nnc(C(=O)NC4(c5cccnc5)CC4)c3C3CC3)cc2)cn1` [Compound 18-10] had an IC50 of 1 to 3 µM.
In the case of `Cc1nn(-c2ccccc2)c(C)c1-c1ccc(-n2nnc(C(=O)NC3(c4cccnc4)CC3)c2C2CC2)cc1` [Compound 18-11] it was less than 0.1 µM; in that of `CCn1cc(C2(NC(=O)c3nnn(-c4ccc(-c5ccccc5)cc4)c3C3CC3)CC2)cn1` [Compound 18-12], 1 to 3 µM; in that of `N#Cc1ccc(-c2ccc(-n3nnc(C(=O)NC4(c5cncc(Cl)c5)CC4)c3C3CC3)cc2)cc1F` [Compound 18-13], 0.1 to 0.5 µM.
For `CCn1cc(C2(NC(=O)c3nnn(-c4ccc(-c5ccc(C#N)c(F)c5)cc4)c3C3CC3)CC2)cn1` [Compound 18-14] the value was 0.1 to 0.5 µM; for `COc1cc(C#N)ccc1-c1ccc(-n2nnc(C(=O)NC3(c4cncc(Cl)c4)CC3)c2C2CC2)cc1` [Compound 18-15], 0.5 to 1 µM.
As to `Cc1cc(C#N)ccc1-c1ccc(-n2nnc(C(=O)NC3(c4cncc(Cl)c4)CC3)c2C2CC2)cc1` [Compound 18-16], the IC50 is 0.5 to 1 µM.
For `Cc1nn(C)c(C)c1-c1ccc(-n2nnc(C(=O)NC3(c4cccnc4)CC3)c2C2CC2)cc1` [Compound 18-17] the value was 1 to 3 µM.
For `N#Cc1ccc(-c2ccc(-n3nnc(C(=O)NC4(c5cncc(F)c5)CC4)c3C3CC3)cc2)cc1` [Compound 18-18] the value was 1 to 3 µM.
In the case of `O=C(NC1(c2cncc(Cl)c2)CC1)c1nnn(-c2ccc(-c3cnn(Cc4ccccc4)c3)cc2)c1C1CC1` [Compound 18-19] it was 1 to 3 µM; in that of `CC(=O)c1cccc(-c2cccc(-n3nnc(C(=O)NC4(c5cccnc5)CC4)c3C3CC3)c2)c1` [Compound 18-20], 0.1 to 0.5 µM; in that of `N#CCc1ccc(-c2cccc(-n3nnc(C(=O)NC4(c5cccnc5)CC4)c3C3CC3)c2)cc1` [Compound 18-21], 1 to 3 µM.
`CC(=O)c1cccc(-c2cccc(-n3nnc(C(=O)NC(C)c4nc5ccccc5n4C)c3C3CC3)c2)c1` (stereo not drawn) [Compound 18-22]: the IC50 is more than 3 µM.
In the case of `Cc1nn(C)c(C)c1-c1ccc(-n2nnc(C(=O)NC3(c4cccnc4)CC3)c2C(C)C)cc1` [Compound 18-23] it was 0.1 to 0.5 µM.
Compound `COc1ccc(C2(NC(=O)c3nnn(-c4ccc(-c5ccc(C#N)cc5)cc4)c3C(C)C)CC2)cn1` [Compound 18-24] yielded an IC50 of 0.5 to 1 µM.
Take `COc1ccc(C2(NC(=O)c3nnn(-c4ccc(-c5c(C)nn(C)c5C)cc4)c3C(C)C)CC2)cn1` [Compound 18-25]: the IC50 lay in the range of 0.5 to 1 µM.
For `CC(C)c1c(C(=O)NC2(c3cccnc3)CC2)nnn1-c1ccc(-c2ccc(C#N)c(F)c2)cc1` [Compound 18-26] the value was 1 to 3 µM; for `CCn1cc(C2(NC(=O)c3nnn(-c4ccc(-c5ccc(C#N)nc5)cc4)c3C(C)C)CC2)cn1` [Compound 18-27], 1 to 3 µM.
For `COc1ccc(C2(NC(=O)c3nnn(-c4ccc(-c5ccccc5)cc4)c3C(C)C)CC2)cn1` [Compound 18-28] the value was 1 to 3 µM.
In the case of `CC(C)c1c(C(=O)NC2(c3cccnc3)CC2)nnn1-c1ccc(-c2ccc(C#N)nc2)cc1` [Compound 18-29] it was more than 3 µM; in that of `CC(C)c1c(C(=O)NC2(c3cccnc3)CC2)nnn1-c1ccc(-c2ccccc2)cc1` [Compound 18-30], more than 3 µM; in that of `Cc1ccc(CNC(=O)c2nnn(-c3ccc(-c4c(C)nn(C)c4C)cn3)c2C2CC2)cn1` [Compound 19-1], 0.5 to 1 µM.
In the case of `CCn1nc(C)c(-c2ccc(-n3nnc(C(=O)NC4(c5cccnc5)CC4)c3C3CC3)cc2)c1C` [Compound 19-2, 5-cyclopropyl-1-(4-(1-ethyl-3,5-dimethyl-1H-pyrazol-4-yl)phenyl)-N-(1-(pyridin-3-yl)cyclopropyl)-1H-1,2,3-triazole-4-carboxamide], the IC50 lay in the range of 0.1 to 0.5 µM.
In the case of `Cc1nn2ccccc2c1-c1ccc(-n2nnc(C(=O)NC3(c4cccnc4)CC3)c2C2CC2)cc1` [Compound 19-3] it was 0.5 to 1 µM; in that of `COc1ccc(C2(NC(=O)c3nnn(-c4ccc(-c5c(C)nn6ccccc56)cc4)c3C(C)C)CC2)cn1` [Compound 19-4], 0.1 to 0.5 µM.
For `Cc1cc(NC(=O)c2nnn(-c3ccc(-c4c(C)nn(CC(F)(F)F)c4C)cc3)c2C2CC2)ccn1` [Compound 20-1, 5-cyclopropyl-1-(4-(3,5-dimethyl-1-(2,2,2-trifluoroethyl)-1H-pyrazol-4-yl)phenyl)-N-(2-methylpyridin-4-yl)-1H-1,2,3-triazole-4-carboxamide], the IC50 was less than 0.1 µM.
In the case of `Cc1ccc(CNC(=O)c2nnn(-c3ccc(-c4c(C)nn(C)c4C)cc3F)c2C2CC2)cn1` [Compound 21-1, 5-cyclopropyl-1-(2-fluoro-4-(1,3,5-trimethyl-1H-pyrazol-4-yl)phenyl)-N-((6-methylpyridin-3-yl)methyl)-1H-1,2,3-triazole-4-carboxamide] it was less than 0.1 µM.
For `COc1cc(-c2c(C)nn(C)c2C)ccc1-n1nnc(C(=O)NCc2ccc(C)nc2)c1C1CC1` [Compound 21-2] the value was 0.1 to 0.5 µM; for `Cc1cc(NC(=O)c2nnn(-c3ccc(-c4ccc(C#N)cc4)cc3F)c2C2CC2)ccn1` [Compound 22-1, 1-(4′-cyano-3-fluoro-[1,1′-biphenyl]-4-yl)-5-cyclopropyl-N-(2-methylpyridin-4-yl)-1H-1,2,3-triazole-4-carboxamide], 0.1 to 0.5 µM.
For `N#Cc1ccc(-c2ccc(-n3nnc(C(=O)NC4(c5cccnc5)CC4)c3C3CC3)c(F)c2)cc1` [Compound 22-2] the value was 0.5 to 1 µM; for `CCn1cc(CNC(=O)c2nnn(-c3ccc(-c4ccc(C#N)cc4)cc3F)c2C2CC2)cn1` [Compound 22-3], 1 to 3 µM; for `CCn1cc(CNC(=O)c2nnn(-c3ccc(-c4ccc(C#N)cc4)cn3)c2C2CC2)cn1` [Compound 22-4], 1 to 3 µM.
In turn, `Cc1cc(NC(=O)c2nnn(C3CC=C(c4ccc(C#N)cc4)CC3)c2C2CC2)ccn1` (stereo not drawn) [Compound 23-1, 1-(4′-cyano-2,3,4,5-tetrahydro-[1,1′-biphenyl]-4-yl)-5-cyclopropyl-N-(2-methylpyridin-4-yl)-1H-1,2,3-triazole-4-carboxamide] yielded an IC50 of 0.1 to 0.5 µM.
For `Cc1ccc(-n2nnc(C(=O)Nc3ccnc(C(F)(F)F)c3)c2C(C)C)cc1` [Compound 24-1, 5-isopropyl-1-(p-tolyl)-N-(2-(trifluoromethyl)pyridin-4-yl)-1H-1,2,3-triazole-4-carboxamide] the value was 1 to 3 µM.
On to `CC(=O)c1cccc(-c2cc(-n3nnc(C(=O)Nc4ccncc4)c3C3CC3)ccc2-c2c(C)nn(C)c2C)c1` [Compound 25-1, 1-(3′-acetyl-6-(1,3,5-trimethyl-1H-pyrazol-4-yl)-[1,1′-biphenyl]-3-yl)-5-cyclopropyl-N-(pyridin-4-yl)-1H-1,2,3-triazole-4-carboxamide], for which the IC50 lay within 1 to 3 µM.
For `CCO/C=C/c1cc(-n2nnc(C(=O)Nc3ccncc3)c2C2CC2)ccc1-c1c(C)nn(C)c1C` [Compound 25-2] the value was 1 to 3 µM.
